Source: patent publication US9695155B2, “Herbicidal substituted pyrimidinyloxy benzene compounds” (E. I. DU PONT DE NEMOURS AND COMPANY, priority 2013, dated 2017)

Assays:
ducksalad = assay: Test C flooded paddy test; type: in vivo, Heteranthera limosa; settings: Flood, scale 0 to 100 (0 no effect, 100 complete control), 13 to 15 days
Summary of the method: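 Greenhouse pots flooded to 3 cm above soil at time of treatment received compound via the water, which stayed at that level.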

Italian ryegrass = assay: Test A preemergence; type: in vivo, Lolium multiflorum
Summary of the method: (§1)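 Visual injury scored 0–100 (100 = complete control) against untreated controls about 10 days after treatment in a greenhouse. Test chemicals, formulated with surfactant in non-phytotoxic solvent, were sprayed on soil preemergence or on 2-10 cm, one- to two-leaf plants postemergence.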

blackgrass = assay: Test A postemergence; type: in vivo, Alopecurus myosuroides
Summary of the method: as §1

[1] = 125 g ai/ha, 0 to 100 scale where 0 is no effect and 100 is complete control
[2] = 500 g ai/ha, 0 to 100 scale, 0 no effect, 100 complete control, approx. 10 days
[3] = 500 g ai/ha, 0 to 100 scale, 0 no effect, 100 complete control
[4] = 31 g ai/ha, 0 to 100 scale, 0 no effect, 100 complete control
[5] = 500 g ai/ha, 0 to 100 scale where 0 is no effect and 100 is complete control
[6] = 1000 g ai/ha, 0 to 100 scale, 0 no effect, 100 complete control, approx. 10 days
[7] = 1000 g ai/ha, 0 to 100 scale, 0 no effect, 100 complete control
[8] = 31 g ai/ha, 0 to 100 scale where 0 is no effect and 100 is complete control, visual, approximately 10 days
[9] = 125 g ai/ha, 0 to 100 scale, 0 no effect, 100 complete control

Row | SMILES | Plant response rating, Ducksalad (ducksalad; 31 g ai/ha) | Plant response rating, Ducksalad (ducksalad; 62 g ai/ha) | Plant response rating, Ducksalad (ducksalad; 125 g ai/ha) | Plant response rating, Ducksalad (ducksalad; 250 g ai/ha) | Plant response rating, Ryegrass, Italian (Italian ryegrass; [1]) | Ryegrass, Italian plant response rating (Italian ryegrass; [5]) | Plant response rating, Blackgrass (blackgrass; [5]) | further results
1 | Clc1cnc(Oc2ccccc2-n2cc(Cl)cn2)nc1 [Compound 3] | 0 | 50 | 70 | 85 | – | – | – | –
2 | N#Cc1cccc(Oc2ncc(F)cn2)c1-n1cc(Br)cn1 [Compound 62] | 30 | 70 | 85 | 100 | – | – | – | –
3 | FCc1cccc(Oc2ncc(Cl)cn2)c1-n1cc(Br)cn1 [Compound 83] | – | – | – | – | 50 | – | – | Ryegrass, Italian plant response rating (Italian ryegrass; [2]): 60; Plant response rating, Blackgrass (blackgrass; [1]): 100; Plant response rating, Blackgrass (blackgrass; [3]): 100
4 | CCOc1cn(-c2c(Br)cccc2Oc2ncc(Cl)cn2)nn1 [Compound 84] | – | – | – | – | 0 | – | – | Ryegrass, Italian plant response rating (Italian ryegrass; [2]): 20; Plant response rating, Blackgrass (blackgrass; [1]): 80; Plant response rating, Blackgrass (blackgrass; [3]): 100
5 | FCc1cccc(Oc2ncc(F)cn2)c1-n1cc(C(F)(F)F)cn1 [Compound 118] | – | – | – | – | 50 | – | – | Ryegrass, Italian plant response rating (0 to 100 scale) (Italian ryegrass; 31 g ai/ha): 0; Plant response rating, Blackgrass (blackgrass; [4]): 60; Plant response rating, Blackgrass (blackgrass; [1]): 90
6 | FCc1cccc(Oc2ncc(Br)cn2)c1-n1cc(C(F)(F)F)cn1 [Compound 120] | 0 | 40 | 80 | 90 | 30 | – | – | Ryegrass, Italian plant response rating (0 to 100 scale) (Italian ryegrass; 31 g ai/ha): 0; Plant response rating, Blackgrass (blackgrass; [4]): 60; Plant response rating, Blackgrass (blackgrass; [1]): 80
7 | Clc1cnc(Oc2cccc(Br)c2-n2cc(Br)nn2)nc1 [Compound 129] | – | – | – | – | 10 | 30 | 90 | Blackgrass plant response rating (blackgrass; [1]): 70
8 | FC(F)(F)Sc1cnn(-c2ccccc2Oc2ncc(Cl)cn2)c1 [Compound 132, 5-chloro-2-[2-[4-(trifluoromethylthio)-1H-pyrazol-1-yl]phenoxy]pyrimidine] | – | – | – | – | 30 | 40 | 90 | Blackgrass plant response rating (blackgrass; [1]): 60
9 | Cc1cnc(Oc2cccc(C#N)c2-n2cc(I)cn2)nc1 [Compound 136] | – | – | – | – | 0 | 30 | 100 | Blackgrass plant response rating (blackgrass; [1]): 20
10 | COc1cnn(-c2c(C#N)cccc2Oc2ncc(Cl)cn2)c1 [Compound 137] | – | – | – | – | 0 | 20 | 90 | Blackgrass plant response rating (blackgrass; [1]): 20
11 | CCCOc1cnn(-c2c(C#N)cccc2Oc2ncc(Cl)cn2)c1 [Compound 150] | 0 | 40 | 70 | 75 | 20 | 50 | 100 | Blackgrass plant response rating (blackgrass; [1]): 100
12 | FCc1cn(-c2c(F)cccc2Oc2ncc(Cl)cn2)nn1 [Compound 154] | – | – | – | – | – | – | – | Ryegrass, Italian plant response rating (Italian ryegrass; [6]): 90; Plant response rating, Blackgrass (blackgrass; [7]): 90
13 | Fc1cccc(Oc2ncc(Cl)cn2)c1-n1cc(C2CC2)nn1 [Compound 155] | – | – | – | – | – | – | – | Ryegrass, Italian plant response rating (Italian ryegrass; [6]): 60; Plant response rating, Blackgrass (blackgrass; [7]): 100
14 | N#Cc1cnn(-c2c(Oc3ncc(Cl)cn3)cccc2C(F)F)c1 [Compound 236] | 0 | 40 | 80 | 90 | – | – | – | –
15 | N#Cc1cccc(Oc2ncc(Cl)cn2)c1-n1cnc(C(F)(F)F)c1 [Compound 252, 3-[(5-chloro-2-pyrimidinyl)oxy]-2-[4-(trifluoromethyl)-1H-imidazol-1-yl]benzonitrile] | – | – | – | – | – | 90 | 100 | Plant response rating, Ryegrass, Italian (Italian ryegrass; [8]): 20; Ryegrass, Italian plant response rating (0 to 100 scale) (Italian ryegrass; 125 g ai/ha): 20; Plant response rating, Blackgrass (blackgrass; [4]): 10; Plant response rating, Blackgrass (blackgrass; [9]): 60
16 | Fc1cccc(Oc2ncc(Cl)cn2)c1-n1cc(OCC(F)(F)F)cn1 [Compound 270] | 20 | 60 | 80 | 95 | – | – | – | Plant response rating, Ryegrass, Italian (Italian ryegrass; [8]): 0; Ryegrass, Italian plant response rating (0 to 100 scale) (Italian ryegrass; 125 g ai/ha): 10; Plant response rating, Blackgrass (blackgrass; [4]): 10; Plant response rating, Blackgrass (blackgrass; [9]): 40
17 | N#Cc1cccc(Oc2ncc(Cl)cn2)c1-n1cc(-n2ccc(C(F)(F)F)n2)cn1 [Compound 284] | – | – | – | – | – | 20 | 70 | Ryegrass, Italian plant response rating (0 to 100 scale) (Italian ryegrass; 125 g ai/ha): 20; Plant response rating, Blackgrass (blackgrass; [9]): 30
